Experimental findings from patent US8778926B2, “Compounds, pharmaceutical compositions and uses thereof” (Boehringer Ingelheim International GmbH, priority 2011, dated 2014) are described below.

The target of the experiment is T1, human GPR119 (Homo sapiens, UniProt Q8TDV5).
T1 construct: expression vector for human GPR119 cDNA (Acc. No. NP_848566); expressed in transfected cells
T1 sequence (Q8TDV5 1-335): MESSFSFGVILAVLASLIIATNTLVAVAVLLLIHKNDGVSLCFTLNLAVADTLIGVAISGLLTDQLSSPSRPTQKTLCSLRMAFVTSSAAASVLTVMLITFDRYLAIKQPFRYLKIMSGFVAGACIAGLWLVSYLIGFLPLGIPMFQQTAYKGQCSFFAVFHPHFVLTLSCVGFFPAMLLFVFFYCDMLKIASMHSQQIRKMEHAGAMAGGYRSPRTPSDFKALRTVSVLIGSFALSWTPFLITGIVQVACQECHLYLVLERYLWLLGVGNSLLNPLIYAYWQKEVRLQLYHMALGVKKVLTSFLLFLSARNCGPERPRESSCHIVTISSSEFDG
Briefly: AlphaScreen cAMP assay, activation of GPR119 in Min-6/hGPR119 cells. It counts as cell-based. The following applies: MIN6 cells stably transfected with human GPR119; intracellular cAMP; 45 minutes incubation at room temperature. Here is the method: The compounds of formula I according to the invention modulate the activity of the G-protein-coupled receptor GPR119. The effect of the compounds on the activation of GPR119 and on the stimulation of intracellular cAMP concentration is determined using the AlphaScreen cAMP Assay Kit (Cat. No. #6760625R) made by PerkinElmer.
MIN6 cells [Miyazaki J et al. Endocrinology. 1990 July; 127(1):126-32] are stably transfected with an expression vector for human GPR119 cDNA (Acc. No. NP_848566). Min-6/hGPR119 cells are cultured in DMEM, 10% FBS, 500 μM β-mercaptoethanol, 0.3 mg/mL Geniticin, 2 mM GlutaMAX at 37° C. 5% CO2. For the assay, the cells are seeded in Optiplates (white, 384-well, 160 W— barcoded, TC, sterile with lid, Cat. No. #6007688 (Perkin Elmer); 10000 cells/well; 50 μl). The plates covered with lids are then incubated for 24 hours at 37° C./5% CO2. After the medium is aspirated from the wells completely, 10 μl of the test compound are added, the compounds are diluted using stimulating buffer (140 mM NaCl, 3.6 mM KCl, 0.5 mM NaH2PO4, 0.5 mM MgSO4, 1.5 mM CaCl2, 10 mM Hepes, 5 mM NaHCO3; pH 7.4. 0.5 mM IBMX and 0.1% BSA, the final DMSO concentration is 1%). After 45 minutes incubation at room temperature (approx. 20° C.), the cAMP concentrations are determined using the AlphaScreen cAMP Assay Kit (Cat. No. #6760625R from PerkinElmer).

`CCc1cnc(N2CCC(C3Cc4cc(-c5ccc(C(=O)N6CCC(C)(O)C6)cc5)ccc4O3)CC2)nc1` (stereo not drawn) [Example 68] yielded an EC50 of 60 nM. To `C[C@@]1(C2CCN(c3cnc(C(F)(F)F)cn3)CC2)Cc2cc(C3=CCN(S(C)(=O)=O)CC3)ncc2O1` (single isomer, unassigned) [Example 38] belongs 14 nM; to `CC(C)(C)c1nc(N2CCC([C@H]3Cc4cc(C5=CCN(S(C)(=O)=O)CC5)ncc4O3)CC2)no1` (single isomer, unassigned) [Example 50], 5 nM. Consider `CC(C)c1nc(N2CCC(C3Cc4cc(-c5ccc(CS(C)(=O)=O)cc5)ncc4O3)CC2)no1` (stereo not drawn) [Example 16], for which the midpoint of the response, the EC50, lay at 17 nM. In turn, `CCc1cnc(N2CCC(C3Cc4cc(-c5ccc(C(=O)NCC#N)cc5)ccc4O3)CC2)nc1` (stereo not drawn) [Example 67] returned an EC50 of 141 nM. As to `CS(=O)(=O)N1CC=C(c2cc3c(cn2)O[C@@H](C2CCN(c4ncc(Cl)cn4)CC2)C3)CC1` (single isomer, unassigned) [Example 83], it took 3 nM to reach a half-maximal effect (EC50). To `CCc1cnc(N2CCC([C@@H]3Cc4cc(C5=CCN(S(C)(=O)=O)CC5)ncc4O3)CC2)nc1` (single isomer, unassigned) [Example 30] belongs 4 nM; to `C[C@@]1(C2CCN(c3ncc(C4CC4)cn3)CC2)Cc2cc(-c3ccc(S(C)(=O)=O)cc3)ncc2O1` (single isomer, unassigned) [Example 89], 16 nM; to `CC(C)c1noc(N2CCC(C3Cc4cc(-c5ccc(S(C)(=O)=O)cc5)ccc4O3)CC2)n1` (stereo not drawn) [Example 2, 1-(3-Isopropyl-[1,2,4]oxadiazol-5-yl)-4-[5-(4-methanesulfonyl-phenyl)-2,3-dihydro-benzofuran-2-yl]-piperidine], 27 nM. For `CC(C)(C)c1noc(N2CCC([C@]3(C)Cc4cc(-c5ccc(S(C)(=O)=O)cc5)ncc4O3)CC2)n1` (single isomer, unassigned) [Example 29] the value was 51 nM.

The molecule `CCc1cnc(N2CCC(C3Cc4cc(-c5ccc(S(C)(=O)=O)cc5)ncc4O3)CC2)cn1` (stereo not drawn) [Example 11, 2-[1-(5-Ethyl-pyrazin-2-yl)-piperidin-4-yl]-5-(4-methanesulfonyl-phenyl)-2,3-dihydro-furo[2,3-c]pyridine] came in with an EC50 of 59 nM. Molecule `CC(C)(C)c1noc(N2CCC(C3Cc4cc(C5=CCN(S(C)(=O)=O)CC5)ncc4O3)CC2)n1` (stereo not drawn) [Example 34, 2-[1-(3-tert-Butyl-[1,2,4]oxadiazol-5-yl)-piperidin-4-yl]-5-(1-methanesulfonyl-1,2,3,6-tetrahydro-pyridin-4-yl)-2,3-dihydro-furo[2,3-c]pyridine] yielded an EC50 of 18 nM. Take `CS(=O)(=O)N1CC=C(c2cc3c(cn2)O[C@@H](C2CCN(c4ncc(C(F)(F)F)cc4F)CC2)C3)CC1` (single isomer, unassigned) [Example 84]: the EC50 came out at 2 nM. Turning to `CCc1cnc(N2CCC(C3Cc4cc(C5=CCN(S(C)(=O)=O)CC5)ncc4O3)CC2)nc1` (stereo not drawn) [Example 18, 2-[1-(5-Ethyl-pyrimidin-2-yl)-piperidin-4-yl]-5-(1-methanesulfonyl-1,2,3,6-tetrahydro-Pyridin-4-yl)-2,3-dihydro-furo[2,3-c]pyridine], the EC50 was found to be 2 nM. In turn, `CCc1cnc(N2CCC(C3Cc4cc(-c5ccc(C(=O)N6CC(OC)C6)cc5)ccc4O3)CC2)nc1` (stereo not drawn) [Example 76] had an EC50 of 59 nM. `CS(=O)(=O)N1CC=C(c2cc3c(cn2)O[C@@H](C2CCN(c4nnc(C(F)(F)F)s4)CC2)C3)CC1` (single isomer, unassigned) [Example 81] displayed an EC50 of 10 nM. For the molecule `CCc1cnc(N2CCC(C3Cc4cc(-c5ccc(C(=O)NCc6ccccn6)cc5)ccc4O3)CC2)nc1` (stereo not drawn) [Example 73], the EC50 turned out to be 19 nM. In the case of `CCc1cnc(N2CCC(C3Cc4cc(-c5ccc(C(=O)NCC6CCCO6)cc5)ccc4O3)CC2)nc1` (stereo not drawn) [Example 72], the EC50 worked out at 12 nM.

Take `C[C@@]1(C2CCN(c3ncc(C(F)(F)F)cc3F)CC2)Cc2cc(C3=CCN(S(C)(=O)=O)CC3)ncc2O1` (single isomer, unassigned) [Example 40]: the midpoint of the response, the EC50, lay at 2 nM. `CCc1cnc(N2CCC(C3Cc4cc(-c5ccc(CS(C)(=O)=O)cc5)ncc4O3)CC2)nc1` (stereo not drawn) [Example 12, 2-[1-(5-Ethyl-pyrimidin-2-yl)-piperidin-4-yl]-5-(4-methanesulfonylmethyl-phenyl)-2,3-dihydro-furo[2,3-c]pyridine] displayed an EC50 of 22 nM. Consider `CS(=O)(=O)c1ccc(-c2ccc3c(c2)CC(C2CCN(c4nc(C5CC5)no4)CC2)O3)cc1` (stereo not drawn) [Example 3, 1-(3-Cyclopropyl-[1,2,4]oxadiazol-5-yl)-4-[5-(4-methanesulfonyl-phenyl)-2,3-dihydro-benzofuran-2-yl]-piperidine], for which a half-maximal effect (EC50) was put at 71 nM. For `CC(C)c1nc(N2CCC(C3Cc4cc(-c5ccc(CS(C)(=O)=O)cc5F)ncc4O3)CC2)no1` (stereo not drawn) [Example 24, 5-(2-Fluoro-4-methanesulfonylmethyl-phenyl)-2-[1-(5-isopropyl-[1,2,4]oxadiazol-3-yl)-piperidin-4-yl]-2,3-dihydro-furo[2,3-c]pyridine] the value was 60 nM; for `CCc1cnc(N2CCC(C3Cc4cc(-c5ccc(C(=O)NCCC(C)(C)O)cc5)ccc4O3)CC2)nc1` (stereo not drawn) [Example 75], 81 nM. With `CCCc1noc(N2CCC(C3Cc4cc(-c5ccc(CS(C)(=O)=O)cc5)ncc4O3)CC2)n1` (stereo not drawn) [Example 15, 5-(4-Methanesulfonylmethyl-phenyl)-2-[1-(3-propyl-[1,2,4]oxadiazol-5-yl)-piperidin-4-yl]-2,3-dihydro-furo[2,3-c]pyridine], the EC50 amounted to 38 nM. In turn, `CC(C)(C)c1nc(N2CCC([C@@H]3Cc4cc(C5=CCN(S(C)(=O)=O)CC5)ncc4O3)CC2)no1` (single isomer, unassigned) [Example 51] gave an EC50 of 7 nM. Molecule `CC(C)c1noc(N2CCC([C@]3(C)Cc4cc(-c5ccc(S(C)(=O)=O)cc5)ncc4O3)CC2)n1` (single isomer, unassigned) [Example 26] showed an EC50 of 9 nM. The molecule `C[C@@]1(C2CCN(c3ncc(C(F)(F)F)cn3)CC2)Cc2cc(C3=CCN(S(C)(=O)=O)CC3)ncc2O1` (single isomer, unassigned) [Example 35] displayed an EC50 of 3 nM.

The molecule `CCc1cnc(N2CCC(C3Cc4cc(-c5ccc(C(=O)N(C)C6CCCOC6)cc5)ccc4O3)CC2)nc1` (stereo not drawn) [Example 61] showed an EC50 of 47 nM. Consider `CS(=O)(=O)c1ccc(-c2cc3c(cn2)OC(C2CCN(c4nc(C(F)(F)F)no4)CC2)C3)cc1` (stereo not drawn) [Example 14, 5-(4-Methanesulfonyl-phenyl)-2-[1-(3-trifluoromethyl-[1,2,4]oxadiazol-5-yl)-piperidin-4-yl]-2,3-dihydro-furo[2,3-c]pyridine], for which it took 29 nM to reach a half-maximal effect (EC50).

For the molecule `C[C@]1(C2CCN(c3ncc(Cl)cn3)CC2)Cc2cc(C3=CCN(S(C)(=O)=O)CC3)ncc2O1` (single isomer, unassigned) [Example 88], the concentration giving a half-maximal response (EC50) was determined as 59 nM. On to `CC(C)c1noc(N2CCC(C3Cc4cc(C5=CCN(S(C)(=O)=O)CC5)ncc4O3)CC2)n1` (stereo not drawn) [Example 20, 2-[1-(3-Isopropyl-[1,2,4]oxadiazol-5-yl)-piperidin-4-yl]-5-(1-methanesulfonyl-1,2,3,6-tetrahydro-pyridin-4-yl)-2,3-dihydro-furo[2,3-c]pyridine], for which the EC50 was found to be 16 nM. To `CCc1cnc(N2CCC(C3Cc4cc(-c5ccc(S(C)(=O)=O)cc5)ccc4O3)CC2)nc1` (stereo not drawn) [Example 1, 5-Ethyl-2-{4-[5-(4-methanesulfonyl-phenyl)-2,3-dihydro-benzofuran-2-yl]-piperidin-1-yl}-pyrimidine] belongs 21 nM; to `CS(=O)(=O)N1CC=C(c2cc3c(cn2)O[C@@H](C2CCN(c4cnc(C(F)(F)F)cn4)CC2)C3)CC1` (single isomer, unassigned) [Example 80], 5 nM. Molecule `CC(C)c1nc(N2CCC(C3Cc4cc(C5=CCN(S(C)(=O)=O)CC5)ncc4O3)CC2)no1` (stereo not drawn) [Example 22] gave an EC50 of 6 nM. Take `CS(=O)(=O)N1CC=C(c2cc3c(cn2)O[C@@H](C2CCN(c4ncc(C(F)(F)F)cn4)CC2)C3)CC1` (single isomer, unassigned) [Example 79]: the response was half-maximal at 3 nM (EC50). `CC(C)c1noc(N2CCC(C3Cc4cc(-c5ccc(CS(C)(=O)=O)cc5)ncc4O3)CC2)n1` (stereo not drawn) [Example 13, 2-[1-(3-Isopropyl-[1,2,4]oxadiazol-5-yl)-piperidin-4-yl]-5-(4-methanesulfonylmethyl-phenyl)-2,3-dihydro-furo[2,3-c]pyridine] had an EC50 of 28 nM.
